Source: US10689341B2, “Small molecule N-(alpha-peroxy) indole compounds and methods of use” (King Abdullah University of Science and Technology, priority 2016, dated 2020)

Assay: Stability in CDC13 in the NMR tube at room temperature
Format: physicochemical
Conditions: decomposed in one day

## COc1ccc2c(c1)c(CCNC(C)=O)cn2C(CC(C)C)OOC(C)(C)CC(OC(C)=O)OC(C)=O (stereo not shown) [Compound 7]
  stability in CDC13: not be stable
